Literature values as cited in patent publication US20250169750A1 (HEMOLENS DIAGNOSTICS SP. Z O.O., priority 2022, published 2025).

What was measured:
[1] = target: A2A adenosine receptors (Homo sapiens, UniProt P29274)
[2] = tested on: coronary vascular responsiveness to adenosine; conditions: for coronary conductance change / systemic pressure change: dog, in vivo

Chain of A2A adenosine receptors (P29274 whole entry): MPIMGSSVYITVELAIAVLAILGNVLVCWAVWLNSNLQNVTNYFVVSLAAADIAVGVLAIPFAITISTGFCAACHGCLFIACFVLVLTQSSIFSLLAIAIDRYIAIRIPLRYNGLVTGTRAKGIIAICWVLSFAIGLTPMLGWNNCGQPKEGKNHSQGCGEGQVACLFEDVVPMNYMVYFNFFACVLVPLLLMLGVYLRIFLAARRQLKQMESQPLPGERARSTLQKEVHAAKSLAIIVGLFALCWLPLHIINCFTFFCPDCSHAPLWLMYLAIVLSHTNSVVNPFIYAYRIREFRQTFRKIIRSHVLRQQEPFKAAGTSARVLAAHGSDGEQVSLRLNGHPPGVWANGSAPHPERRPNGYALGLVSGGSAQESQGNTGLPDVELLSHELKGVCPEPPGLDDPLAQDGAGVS

## Nc1nc(N/N=C/C2CCCCC2)nc2c1ncn2[C@@H]1O[C@H](CO)[C@@H](O)[C@H]1O [Binodenoson]
[1]; APA vs BND
  affinity to an Adenosine receptor (comparison): equal
[1]; intravenous bolus
  duration of the action: less than 5 minutes

## COc1ccc(Cl)cc1C(=O)NCCc1ccc(S(=O)(=O)NC(=O)NC2CCCCC2)cc1 [Glibenclamide]
[2]; after Glibenclamide administration
  change of Adenosine ED50: increased dose-dependently
[2]
  coronary conductance change: reduction in coronary conductance
  systemic pressure change: increase in systemic pressure

## COC(=O)[C@@H](N)CCCNC(=N)N[N+](=O)[O-] [L-NAME, N^ω-Nitro-L-arginine methyl ester]
[2]; after 1 mg/kg or 10 mg/kg of L-NAME, vs basal condition
  change of Adenosine plasma concentration needed to reach 50% of maximal conductivity increase (ED50): increased three times
[2]
  coronary conductance change: reduction in coronary conductance
  systemic pressure change: increase in systemic pressure

## CNC(=O)c1cnn(-c2nc(N)c3ncn([C@@H]4O[C@H](CO)[C@@H](O)[C@H]4O)c3n2)c1 [Regadenoson]
400 μg bolus vs Dipyridamole 0.56 mg/kg or Adenosine 140 μg/kg/min, 15 healthy volunteers
  stress myocardial blood flow (MBF), comparison: higher values
400 μg bolus vs Dipyridamole or Adenosine
  heart rate (HR), comparison: higher values
Regadenoson vs Adenosine
  stress MBF adjusted to HR, comparison: no differences between Adenosine and Regadenoson
  stress MPR adjusted to HR, comparison: no differences between Regadenoson and Adenosine
Vs Adenosine and Dipyridamole
  unadjusted myocardial perfusion reserve (MPR), comparison: higher
